Laboratory results taken from patent publication US20140249097A1, “Inhibition of HIF-1 activation for Anti-Tumor and Anti-Inflammatory responses” (priority 2010, published 2014).
Like-named read-outs stand apart in the source and are kept apart here. Peptide text beside a SMILES is read from it. * marks the point of attachment. Cbz = O=C(OCc1ccccc1)*

Legend:
[1] = test system: nitric oxide; test: Flow cytometry of intracellular nitric oxide (DAF-FM) in 4T1ODD-luc cells; type: cell-based, mouse; settings: 10 μg/ml 1400W or 15 μM EGCG with 1 μg/ml doxorubicin, 48 hours
Description: To detect intracellular nitric oxide levels, 1×10^6 4 T1ODD-luc cells were plated per 10-cm cell culture dish with 8 ml of cell culture medium. Doxorubicin (1 μg/ml and 5 μg/ml) or an equal volume of control solvent was added into the cell culture medium the next day and treatment continued for 48 hours. […] Equal amounts of solvent were added for the control group. To quantify intracellular nitric oxide, a single cell suspension was made after trypsinization. 2 ml of 5 uM nitric oxide-specific probe DAF-FM diacetate (4-amino-5-methylamino-2′,7′-difluorofluorescein diacetate) (Invitrogen) were incubated with each cell sample at room temperature in darkness for 30 minutes. The cells were washed with PBS and centrifuged to remove the excess DAF-FM diacetate probe. The cells were resuspended into 500 ul of phenol-free DMEM and incubated for another 20 minutes for complete intracellular deacetylation of the probe. The mean fluorescence intensity of the deacetylated DAF-FM reacted with nitric oxide was quantified by FACSCalibur flow cytometer in FITC channel (Becton Dickinson, Franklin Lakes, N.J., United States of America).

[2] = test system: iNOS; test: Western blotting of iNOS in 4T1ODD-luc cells; type: cell-based, mouse; settings: for inhibition of iNOS expression in doxorubicin-treated cells / doxorubicin-induced iNOS upregulation: with doxorubicin; for inhibition of iNOS expression in doxorubicin-treated cells: 24 h; for doxorubicin-induced iNOS upregulation: 48 h; for basal level of iNOS expression: without doxorubicin, 24 h and 48 h, 10 μg/ml 1400W or 15 μM EGCG
Description: (§1) Cell nuclear proteins were extracted using the NucBuster protein extraction kit (Novagen, Gibbstown, N.J., United States of America). Total cell lysates or cell nuclear extractions were quantified using a protein assay reagent (Bio-Rad). Equal amounts of protein sample were separated by Bis-HCl gel (Bio-Rad) and transferred to a […] Immun-Blot PVDF membrane (Bio-Rad).

[3] = test system: 4T1ODD-luc cells; test: Cell Titer-Glo cell viability assay; settings: 10 μg/ml 1400W or 15 μM EGCG with 1 μg/ml doxorubicin, to day 3
Description: Cell viability was quantified by Cell Titer-Glo luminescent cell viability assay (Promega, Madison, Wis., United States of America) daily until day 3. The daily cell viability was normalized to the initial cell viability on day 0 within each group.

[4] = test system: STAT1; test: Western blotting of STAT1 and phospho-STAT1 in 4T1ODD-luc cells; type: cell-based, mouse; settings: 48 hours post-treatment
Description: as §1

[5] = test system: HIF-1α; type: cell-based, murine
[6] = test system: C533S-ODD-luc; test: C533S-ODD-luc reporter in 4T1 cells in vitro; type: cell-based, murine
[7] = test system: HIF-1α; test: Western blotting of HIF-1α in 4T1ODD-luc cells; type: cell-based, mouse; settings: 4T1ODD-luc cells, post-treatment day 2
Description: as §1

[8] = test system: HIF-1α; test: Western blotting of HIF-1α in MCF-7 cells; type: cell-based, human; settings: MCF-7 cells, post-treatment day 3
Description: as §1

Row | Compound | doxorubicin-induced increase of intracellular NO [1] | inhibition of iNOS expression in doxorubicin-treated cells [2] | doxorubicin-induced iNOS upregulation [2] | basal level of iNOS expression [2] | effect of combination on cytotoxicity of doxorubicin (cell viability) [3] | doxorubicin-induced upregulation of STAT1 expression and activation [4] | also measured
1 | CC(=N)NCc1cccc(CN)c1 [1400W, N-(3-(aminomethyl)benzyl)acetamidine] | significantly suppressed the doxorubicin-induced increase of intracellular NO | not obvious | successfully suppressed the doxorubicin-induced iNOS upregulation | suppressed the basal level of iNOS expression | did not attenuate the cytotoxicity of doxorubicin | potently suppressed the doxorubicin-induced upregulation of STAT1 expression and activation | –
2 | [Cl-].[Cl-].[Co+2] [CoCl2] | – | – | – | – | – | – | luminescence arising from ODD-luc reporter gene expression [5]: rose significantly; C533S-ODD-luc induction [6]: significant inductions, similar to wild-type
3 | O=C(O[C@@H]1Cc2c(O)cc(O)cc2O[C@@H]1c1cc(O)c(O)c(O)c1)c1cc(O)c(O)c(O)c1 [EGCG, epigallocatechin gallate] | significantly suppressed the doxorubicin-induced increase of intracellular NO | not obvious | successfully suppressed the doxorubicin-induced iNOS upregulation | suppressed the basal level of iNOS expression | did not attenuate the cytotoxicity of doxorubicin | potently suppressed the doxorubicin-induced upregulation of STAT1 expression and activation | doxorubicin-induced normoxic HIF-1α accumulation [7]: successfully suppressed the doxorubicin-induced normoxic HIF-1α accumulation; doxorubicin-induced normoxic HIF-1α accumulation [8]: successfully suppressed the doxorubicin-induced normoxic HIF-1α accumulation
4 | N[C@@H](CCC(=O)N[C@@H](CSN=O)C(=O)NCC(=O)O)C(=O)O [GSNO, S-nitrosoglutathione] | – | – | – | – | – | – | C533S-ODD-luc expression induced by GSNO ([6]; 4T1 cells, GSNO 1 mM): almost absent
5 | CC(C)C[C@@H](C=O)NC(=O)[C@H](CC(C)C)NC(=O)[C@H](CC(C)C)NC(=O)OCc1ccccc1 [MG132] (Cbz-Leu-Leu-Leu-aldehyde) | – | – | – | – | – | – | luminescence arising from ODD-luc reporter gene expression ([5]; 4T1 cells, CoCl2 240 μM for 12 hrs, MG132 10 μM for 12 hrs, vs background): rose significantly
6 | CC1(C)N([O])C(c2ccc(C(=O)[O-])cc2)=[N+]([O-])C1(C)C.[K+] [carboxy-PTIO, potassium 2-(4-carboxyphenyl)-4,4,5,5-tetramethylimidazoline-1-oxyl-3-oxide] | – | – | – | – | – | – | effect on HIF-1α activation (ODD-luc) by GSNO [5]: effectively suppressed HIF-1α activation by GSNO
